From patent US11639353B2, “Cyclobutanes- and azetidine-containing mono and spirocyclic compounds as αV integrin inhibitors” (BRISTOL-MYERS SQUIBB COMPANY, priority 2016, dated 2023)

Target: T1, human αVβ6 (Homo sapiens, UniProt P06756+P18564)
T1 construct: purchased R & D systems 3817-AV
Assay: human αVβ6 HTRF binding assay
Details: alternatively SPA-based assay
Experimental: All binding assays used the HTRF (homogeneous time resolved fluorescence) technology from Cisbio International, therefore all assays are described as HTRF binding assays. The assay results for the Examples are listed above together with the characterization data. The HTRF binding assays are established for the following integrins: human αVβ6, human αVβ1, human αVβ3, human αVβ5, and human αVβ8. All assays used the following assay buffer: 20 mM Tris, pH 7.4, 1 mM MgCl2, 1 mM MnCl2, 0.01% Tween 20, and 0.01% BSA. Alternatively, a SPA-based assay was used for evaluation of receptor binding.
The following describes the components and a representative procedure for the human αVβ6 HTRF binding assay: Recombinant human αVβ6 Integrin (R & D systems, 3817-AV) was biotinylated. Biotinylated human αVβ6 Integrin was added to assay vessel at a final concentration of 1.25 nM. FITC-conjugated fibronectin (Cytoskeleton, FNR02) was then added at the final concentration of 5 nM. The mixture was centrifuged at 600 rpm for three minutes using Thermo Fisher Heraeus Multifuge X3 centrifuge and then incubated at RT for an hour. Streptavidin Terbium (Cisbio international 610STLB) was then added at the final concentration of 0.625 nM. The resulting mixture was centrifuged at 600 rpm for three minutes using Thermo Fisher Heraeus Multifuge X3 centrifuge and then incubated at room temperature overnight in dark before reading HTRF signals.
The SPA-based assay was carried out according to the protocol and procedures similar to the ones described in the following reference with appropriate modifications to agents and ligands which are readily understood by one skilled in the art: Pachter J A, Zhang R, Mayer-Ezell R., “Scintillation proximity assay to measure binding of soluble fibronectin to antibody-captured αVβ1 integrin” Anal Biochem. 1995 Sep. 1; 230(1):101-7.

T1 sequence (P06756 31-992 limits assumed): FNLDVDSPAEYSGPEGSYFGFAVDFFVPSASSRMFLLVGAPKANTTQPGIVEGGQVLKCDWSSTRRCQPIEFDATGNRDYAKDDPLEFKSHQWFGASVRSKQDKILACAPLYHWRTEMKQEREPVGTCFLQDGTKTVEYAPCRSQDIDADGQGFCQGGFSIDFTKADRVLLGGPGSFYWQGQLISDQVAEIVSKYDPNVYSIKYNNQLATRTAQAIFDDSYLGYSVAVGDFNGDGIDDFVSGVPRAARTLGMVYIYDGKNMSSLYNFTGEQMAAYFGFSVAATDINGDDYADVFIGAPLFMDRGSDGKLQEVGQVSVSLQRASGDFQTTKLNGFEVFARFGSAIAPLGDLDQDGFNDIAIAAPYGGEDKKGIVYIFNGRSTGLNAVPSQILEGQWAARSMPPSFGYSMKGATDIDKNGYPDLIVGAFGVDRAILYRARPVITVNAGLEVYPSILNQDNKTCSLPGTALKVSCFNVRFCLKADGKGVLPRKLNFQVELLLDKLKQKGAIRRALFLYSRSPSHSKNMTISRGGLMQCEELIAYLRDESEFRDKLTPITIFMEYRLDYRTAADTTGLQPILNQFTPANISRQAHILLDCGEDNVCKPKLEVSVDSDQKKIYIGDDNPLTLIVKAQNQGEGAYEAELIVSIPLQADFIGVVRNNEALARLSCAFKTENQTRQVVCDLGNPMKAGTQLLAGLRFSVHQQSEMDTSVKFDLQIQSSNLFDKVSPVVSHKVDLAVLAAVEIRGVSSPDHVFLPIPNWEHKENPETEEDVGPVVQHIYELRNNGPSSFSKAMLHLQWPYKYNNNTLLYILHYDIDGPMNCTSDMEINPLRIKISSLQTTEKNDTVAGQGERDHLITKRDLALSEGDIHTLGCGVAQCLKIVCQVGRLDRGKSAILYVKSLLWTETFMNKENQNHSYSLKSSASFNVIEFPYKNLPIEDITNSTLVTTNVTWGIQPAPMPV
T1 sequence (P18564 22-707 limits assumed): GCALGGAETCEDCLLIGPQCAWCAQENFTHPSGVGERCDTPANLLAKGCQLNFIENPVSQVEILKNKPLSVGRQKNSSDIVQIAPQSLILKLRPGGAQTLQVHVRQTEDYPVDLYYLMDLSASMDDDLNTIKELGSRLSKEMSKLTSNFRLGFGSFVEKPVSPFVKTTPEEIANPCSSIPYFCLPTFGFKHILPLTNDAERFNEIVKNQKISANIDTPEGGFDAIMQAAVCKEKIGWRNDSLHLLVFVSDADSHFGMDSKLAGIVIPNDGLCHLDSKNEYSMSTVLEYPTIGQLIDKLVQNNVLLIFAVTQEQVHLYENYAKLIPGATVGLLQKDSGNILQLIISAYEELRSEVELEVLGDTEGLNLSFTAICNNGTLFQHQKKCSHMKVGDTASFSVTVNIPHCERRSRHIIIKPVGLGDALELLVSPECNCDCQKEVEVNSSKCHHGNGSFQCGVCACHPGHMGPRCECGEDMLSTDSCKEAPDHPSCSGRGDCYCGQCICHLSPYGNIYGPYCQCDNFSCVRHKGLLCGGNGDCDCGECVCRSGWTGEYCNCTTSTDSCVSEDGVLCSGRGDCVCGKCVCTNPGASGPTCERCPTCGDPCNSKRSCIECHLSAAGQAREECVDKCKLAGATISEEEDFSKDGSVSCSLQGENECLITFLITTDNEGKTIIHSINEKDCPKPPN

| SMILES | IC50 [nM] |
| --- | --- |
| CCOC(=O)C[C@H](NC(=O)C1CC2(C1)CN(CCc1ccc3c(n1)NCCC3)C2)c1cc(Cl)cc(Cl)c1 [Example 49] | 480 |
| O=C(O)[C@H](CN1CC(CCCc2ccc3c(n2)NCCC3)C1=O)NS(=O)(=O)c1ccc(F)cc1 (single isomer, unassigned) [Example 188] | 3.34 |
| COc1ccc(C(CC(=O)O)C2(F)CN(CCCCc3ccc4c(n3)NCCC4)C2)cc1F (stereo not shown) [Example 22, 3-(3-Fluoro-1-(4-(5,6,7,8-tetrahydro-1,8-naphthyridin-2-yl)butyl)azetidin-3-yl)-3-(3-fluoro-4-methoxyphenyl)propanoic acid] | 3.8 |
| COc1ccc(C(CC(=O)O)CC(=O)N2CC(CCc3ccc4c(n3)NCCC4)C2)cc1F (stereo not shown) [Example 67] | 7.1 |
| CC1(CCCCc2ccc3c(n2)NCCC3)CN([C@@H](CC(=O)O)c2cc(F)cc(F)c2)C1 [Example 160] | 1.3 |
| O=C(O)C[C@@H](c1cnc2ccccc2c1)N1CC(CCCCc2ccc3c(n2)NCCC3)C1 [Example 153] | 1.1 |
| CC1(CCCCc2ccc3c(n2)NCCC3)CN([C@@H](CC(=O)O)c2ccc(F)c(F)c2)C1 [Example 161] | 0.85 |
| O=C(O)C[C@@H](c1cc(Cl)cc(Cl)c1)N1CC(CCCCc2ccc3c(n2)NCCC3)C1=O (stereo partly shown) [Example 108] | 0.72 |
| COc1ccc(C(CC(=O)O)N2CC3(CC(Cc4ccc5c(n4)NCCC5)C3)C2)cc1F (stereo not shown) [Example 210, 3-(3-fluoro-4-methoxyphenyl)-3-(6-((5,6,7,8-tetrahydro-1,8-naphthyridin-2-yl)methyl)-2-azaspiro[3.3]heptan-2-yl)propanoic acid] | 5.6 |
| Cc1ncc([C@H](CC(=O)O)N2CC(COCCc3ccc4c(n3)NCCC4)C2)cn1 [example 129, (S)-3-(2-methylpyrimidin-5-yl)-3-(3-((2-(5,6,7,8-tetrahydro-1,8-naphthyridin-2-yl)ethoxy)methyl)azetidin-1-yl)propanoic acid] | 3.2 |
| Cc1cc(C)c(S(=O)(=O)N[C@@H](CN2CC(CCCc3ccc4c(n3)NCCC4)C2=O)C(=O)O)c(C)c1 (single isomer, unassigned) [Example 185] | 18 |
| COc1ccc([C@H](CC(=O)O)NC(=O)C2CN(CCc3ccc4c(n3)NCCC4)C2)cn1 [Example 37] | 1 |
| COc1ccc(C(CC(=O)O)N2CC3(CC(CCc4ccc5c(n4)NCCC5)C3)C2)cn1 (stereo not shown) [Example 205] | 3.7 |
| CCCOC(=O)N[C@@H](CC(=O)N1CC(CCc2ccc3c(n2)NCCC3)C1)C(=O)O [Example 175] | 735 |

Second part, the compound after the results:

| IC50 [nM] | SMILES |
| --- | --- |
| 1.4 | O=C(O)C[C@@H](c1cc(F)cc(F)c1)N1CC(CCCCc2ccc3c(n2)NCCC3)C1 [Example 152] |
| 5.9 | COc1ccc(C(CC(=O)O)C2CC3(C2)CN(CCCc2ccc4c(n2)NCCC4)C3)cn1 (stereo not shown) [Example 99] |
| 4 | O=C(C[C@H](NC(=O)OCc1ccccc1)C(=O)O)NC1CC(CCc2ccc3c(n2)NCCC3)C1 (stereo partly shown) [Example 64] |
| 230 | CCOC(=O)C[C@H](NC(=O)C1CC2(C1)CN(CCc1ccc3c(n1)NCCC3)C2)c1ccc(OC)c(F)c1 [Example 31] |
| 5000 | COc1ccc(C(NC(=O)C2CC(CCc3ccc4c(n3)NCCC4)C2)C(C)(C)C(=O)O)cn1 (single isomer, unassigned) [Example 189, 3-(6-methoxypyridin-3-yl)-2,2-dimethyl-3-(3-(2-(5,6,7,8-tetrahydro-1,8-naphthyridin-2-yl)ethyl)cyclobutane-1-carboxamido)propanoic acid] |
| 20 | O=C(N[C@@H](CC(=O)N1CC2(CC(CCc3ccc4c(n3)NCCC4)C2)C1)C(=O)O)OCc1ccccc1 [Example 61] |
| 1.6 | COc1ccc([C@H](CC(=O)O)NC(=O)C2CN(CCCc3ccc4c(n3)NCCC4)C2)cn1 [Example 40] |
| 7.7 | COc1ccc(C(CC(=O)O)C2CC(CCCCc3ccc4c(n3)NCCC4)C2)cn1 (single isomer, unassigned; diastereomer b) [Example 140, 3-(6-Methoxypyridin-3-yl)-3-(3-(4-(5,6,7,8-tetrahydro-1,8-naphthyridin-2-yl)butyl)cyclobutyl)propanoic acid (Diastereomer B)] |
